Assay results taken from ChEMBL document CHEMBL2440080, “Synthesis and biological evaluation of novel acylhydrazone derivatives as potential antitumor agents” (Bioorg Med Chem, 2013).

Key:
Assay type in all cases: functional
[1] = system: IGROV-1; test: Cytotoxicity against human IGROV1 cells after 48 hrs by sulforhodamine B assay; settings: IGROV-1, 48 h
[2] = system: SK-OV-3; test: Cytotoxicity against human SKOV3 cells after 48 hrs by sulforhodamine B assay; settings: SK-OV-3, 48 h
[3] = system: ACHN; test: Cytotoxicity against human ACHN cells after 48 hrs by sulforhodamine B assay
[4] = system: SN12C; test: Cytotoxicity against human SN12C cells after 48 hrs by sulforhodamine B assay
[5] = system: 786-0; test: Cytotoxicity against human 786-0 cells after 48 hrs by sulforhodamine B assay; settings: 786-0, 48 h
[6] = system: HCC 2998; test: Cytotoxicity against human HCC2998 cells after 48 hrs by sulforhodamine B assay; settings: HCC 2998, 48 h
[7] = system: HOP-92; test: Cytotoxicity against human HOP92 cells after 48 hrs by sulforhodamine B assay; settings: HOP-92, 48 h
[8] = system: MDA-MB-231; test: Cytotoxicity against human MDA-MB-231 cells after 48 hrs by sulforhodamine B assay; settings: MDA-MB-231, 48 h
[9] = system: TK-10; test: Cytotoxicity against human TK10 cells after 48 hrs by sulforhodamine B assay; settings: TK-10, 48 h
[10] = system: SNB-75; test: Cytotoxicity against human SNB75 cells after 48 hrs by sulforhodamine B assay; settings: SNB-75, 48 h
[11] = system: SF-295; test: Cytotoxicity against human SF295 cells after 48 hrs by sulforhodamine B assay; settings: SF-295, 48 h
[12] = system: CAKI-1; test: Cytotoxicity against human CAKI-1 cells after 48 hrs by sulforhodamine B assay; settings: CAKI-1, 48 h
[13] = system: A549; test: Cytotoxicity against human A549/ATCC cells after 48 hrs by sulforhodamine B assay; settings: A549, 48 h
[14] = system: LOX IMVI; test: Cytotoxicity against human LOXIMVI cells after 48 hrs by sulforhodamine B assay
[15] = system: MCF7; test: Cytotoxicity against human MCF7 cells after 48 hrs by sulforhodamine B assay; settings: MCF7, 48 h
[16] = system: SNB-19; test: Cytotoxicity against human SNB19 cells after 48 hrs by sulforhodamine B assay; settings: SNB-19, 48 h
[17] = system: COLO 205; test: Cytotoxicity against human COLO205 cells after 48 hrs by sulforhodamine B assay; settings: COLO 205, 48 h
[18] = system: SR; test: Cytotoxicity against human SR cells after 48 hrs by sulforhodamine B assay
[19] = system: SK-MEL-5; test: Cytotoxicity against human SK-MEL-5 cells after 48 hrs by sulforhodamine B assay; settings: SK-MEL-5, 48 h
[20] = Cytotoxicity against human EKVX cells after 48 hrs by sulforhodamine B assay
[21] = system: SK-MEL-28; test: Cytotoxicity against human SK-MEL-28 cells after 48 hrs by sulforhodamine B assay; settings: SK-MEL-28, 48 h
[22] = system: MOLT-4; test: Cytotoxicity against human MOLT4 cells after 48 hrs by sulforhodamine B assay; settings: MOLT-4, 48 h
[23] = system: NCI-H460; test: Cytotoxicity against human NCI-H460 cells after 48 hrs by sulforhodamine B assay; settings: NCI-H460, 48 h
[24] = system: T47D; test: Cytotoxicity against human T47D cells after 48 hrs by sulforhodamine B assay
[25] = system: SF-539; test: Cytotoxicity against human SF539 cells after 48 hrs by sulforhodamine B assay; settings: SF-539, 48 h
[26] = system: DU-145; test: Cytotoxicity against human DU145 cells after 48 hrs by sulforhodamine B assay; settings: DU-145, 48 h
[27] = system: M14; test: Cytotoxicity against human M14 cells after 48 hrs by sulforhodamine B assay; settings: M14, 48 h
[28] = system: HOP-62; test: Cytotoxicity against human HOP62 cells after 48 hrs by sulforhodamine B assay; settings: HOP-62, 48 h
[29] = system: OVCAR-5; test: Cytotoxicity against human OVCAR5 cells after 48 hrs by sulforhodamine B assay; settings: OVCAR-5, 48 h
[30] = system: OVCAR-8; test: Cytotoxicity against human OVCAR8 cells after 48 hrs by sulforhodamine B assay; settings: OVCAR-8, 48 h
[31] = system: SF-268; test: Cytotoxicity against human SF268 cells after 48 hrs by sulforhodamine B assay; settings: SF-268, 48 h
[32] = system: Malme-3M; test: Cytotoxicity against human MALME-3M cells after 48 hrs by sulforhodamine B assay
[33] = system: NCI-H322M; test: Cytotoxicity against human NCI-H322M cells after 48 hrs by sulforhodamine B assay
[34] = system: HT-29; test: Cytotoxicity against human HT-29 cells after 48 hrs by sulforhodamine B assay; settings: HT-29, 48 h
[35] = system: SW-620; test: Cytotoxicity against human SW620 cells after 48 hrs by sulforhodamine B assay; settings: SW-620, 48 h
[36] = system: CCRF-CEM; test: Cytotoxicity against human CCRF-CEM cells after 48 hrs by sulforhodamine B assay
[37] = system: OVCAR-4; test: Cytotoxicity against human OVCAR4 cells after 48 hrs by sulforhodamine B assay; settings: OVCAR-4, 48 h
[38] = system: HCT-116; test: Cytotoxicity against human HCT116 cells after 48 hrs by sulforhodamine B assay; settings: HCT-116, 48 h
[39] = system: UACC-62; test: Cytotoxicity against human UACC62 cells after 48 hrs by sulforhodamine B assay; settings: UACC-62, 48 h
[40] = system: PC-3; test: Cytotoxicity against human PC3 cells after 48 hrs by sulforhodamine B assay; settings: PC-3, 48 h
[41] = system: UO-31; test: Cytotoxicity against human UO31 cells after 48 hrs by sulforhodamine B assay; settings: UO-31, 48 h
[42] = system: OVCAR-3; test: Cytotoxicity against human OVCAR3 cells after 48 hrs by sulforhodamine B assay; settings: OVCAR-3, 48 h
[43] = system: NCI-H23; test: Cytotoxicity against human NCI-H23 cells after 48 hrs by sulforhodamine B assay; settings: NCI-H23, 48 h
[44] = system: NCI-H522; test: Cytotoxicity against human NCI-H522 cells after 48 hrs by sulforhodamine B assay; settings: NCI-H522, 48 h
[45] = system: RXF 393; test: Cytotoxicity against human RXF393 cells after 48 hrs by sulforhodamine B assay; settings: RXF 393, 48 h
[46] = system: A498; test: Cytotoxicity against human A498 cells after 48 hrs by sulforhodamine B assay; settings: A498, 48 h
[47] = system: NCI/ADR-RES; test: Cytotoxicity against human NCI/ADR-RES cells after 48 hrs by sulforhodamine B assay
[48] = system: HL-60(TB); test: Cytotoxicity against human HL-60(TB) cells after 48 hrs by sulforhodamine B assay; settings: HL-60, 48 h
[49] = system: MDA-MB-435; test: Cytotoxicity against human MDA-MB-435 cells after 48 hrs by sulforhodamine B assay; settings: MDA-MB-435, 48 h
[50] = system: RPMI-8226; test: Cytotoxicity against human RPMI8226 cells after 48 hrs by sulforhodamine B assay; settings: RPMI-8226, 48 h
[51] = system: NCI-H226; test: Cytotoxicity against human NCI-H226 cells after 48 hrs by sulforhodamine B assay; settings: NCI-H226, 48 h
[52] = system: BT-549; test: Cytotoxicity against human BT549 cells after 48 hrs by sulforhodamine B assay; settings: BT-549, 48 h
[53] = system: UACC-257; test: Cytotoxicity against human UACC257 cells after 48 hrs by sulforhodamine B assay; settings: UACC-257, 48 h
[54] = system: SK-MEL-2; test: Cytotoxicity against human SK-MEL-2 cells after 48 hrs by sulforhodamine B assay; settings: SK-MEL-2, 48 h
[55] = Cytotoxicity against human Hs 578T cells after 48 hrs by sulforhodamine B assay
[56] = system: U-251; test: Cytotoxicity against human U251 cells after 48 hrs by sulforhodamine B assay; settings: U-251, 48 h
[57] = system: HCT-15; test: Cytotoxicity against human HCT15 cells after 48 hrs by sulforhodamine B assay; settings: HCT-15, 48 h
[58] = system: KM12; test: Cytotoxicity against human KM12 cells after 48 hrs by sulforhodamine B assay; settings: KM12, 48 h

With CCN(CC)c1ccc(/C=N/NC(=O)c2cccc(Nc3ccnc(C(F)(F)F)c3)c2)c(O)c1 the GI50 [1] was 200 nM, the GI50 [2] was 407 nM and the GI50 [3] was 245 nM. For the same molecule, the GI50 [4] was 309 nM, the GI50 [5] was 240 nM and the GI50 [6] was 182 nM. For the same molecule, the GI50 [7] was 1000 nM, the GI50 [8] was 316 nM and the GI50 [9] was 501 nM. The GI50 [10] was 257 nM, the GI50 [11] was 324 nM and the GI50 [12] was 200 nM. For the same molecule, the GI50 [13] was 389 nM, the GI50 [14] was 178 nM and the GI50 [15] was 245 nM. It also gave a GI50 [16] of 339 nM, a GI50 [17] of 282 nM and a GI50 [18] of 200 nM. The GI50 [19] was 224 nM, the GI50 [20] was 224 nM and the GI50 [21] was 115 nM. The GI50 [22] was 195 nM, the GI50 [23] was 200 nM and the GI50 [24] was 631 nM. The GI50 [25] was 263 nM, the GI50 [26] was 251 nM and the GI50 [27] was 229 nM. The GI50 [28] was 251 nM, the GI50 [29] was 501 nM and the GI50 [30] was 398 nM. The GI50 [31] was 100 nM, the GI50 [32] was 339 nM and the GI50 [33] was 200 nM. It also gave a GI50 [34] of 339 nM, a GI50 [35] of 324 nM and a GI50 [36] of 141 nM. It also gave a GI50 [37] of 158 nM, a GI50 [38] of 126 nM and a GI50 [39] of 251 nM. For the same molecule, the GI50 [40] was 741 nM, the GI50 [41] was 166 nM and the GI50 [42] was 794 nM. It also gave a GI50 [43] of 646 nM, a GI50 [44] of 407 nM and a GI50 [45] of 398 nM. It also gave a GI50 [46] of 479 nM, a GI50 [47] of 1000 nM and a GI50 [48] of 316 nM. For the same molecule, the GI50 [49] was 339 nM, the GI50 [50] was 158 nM and the GI50 [51] was 372 nM. It also gave a GI50 [52] of 501 nM, a GI50 [53] of 275 nM and a GI50 [54] of 407 nM. For the same molecule, the GI50 [55] was 182 nM, the GI50 [56] was 200 nM and the GI50 [57] was 126 nM. It also gave a GI50 [58] of 398 nM.
